The text below walks through data of patent US9540366B2, “Ring-fused heterocyclic compound” (Kyowa Hakko Kirin Co., Ltd., priority 2012, dated 2017).

Test [1] deals with morphine-induced pruritus mice. The test is described as follows: Inhibitory effect for pruritus in morphine-induced pruritus mice. The format is in vivo. The following applies: oral dose of 10 mg/kg or less, given 30 minutes or 1 hour before intrathecal morphine; scratching counted for 30 minutes; male ddY mice. On the procedure: Inhibitory Effect for Pruritus in Morphine-Induced Pruritus Mice
Morphine (1 nmol/5 μL, dissolved in physiological saline) or physiological saline was intrathecally administered between the fifth and sixth lumbar vertebrae of male ddY mice using a microsyringe fitted with a 30-gauge injection needle. Mice to which only morphine was administered were referred to as a control group, and mice to which only physiological saline was administered were referred to as a physiological saline-administered group.
The number of scratching behavior with the hind legs which began to be observed immediately after the morphine administration was measured for 30 minutes. Because mice show continuous scratching actions in each scratching behavior, a series of such actions was counted as a single scratching behavior.
Each test compound was administered 30 minutes or 1 hour before the morphine administration. The test compound was suspended in a 0.5% methylcellulose solution and was prepared plural administration solutions of different concentrations, and each of them was orally administered in a volume of 10 mL/kg.

The target in test [2] is T1, human Cav3.2 T-type Ca2+ channel (Homo sapiens, UniProt O95180).
T1 construct: expressed in transfected cells; host or cells: KJMGER8 cells (Namalwa cell-derived cell line)
T1 sequence (O95180 whole entry): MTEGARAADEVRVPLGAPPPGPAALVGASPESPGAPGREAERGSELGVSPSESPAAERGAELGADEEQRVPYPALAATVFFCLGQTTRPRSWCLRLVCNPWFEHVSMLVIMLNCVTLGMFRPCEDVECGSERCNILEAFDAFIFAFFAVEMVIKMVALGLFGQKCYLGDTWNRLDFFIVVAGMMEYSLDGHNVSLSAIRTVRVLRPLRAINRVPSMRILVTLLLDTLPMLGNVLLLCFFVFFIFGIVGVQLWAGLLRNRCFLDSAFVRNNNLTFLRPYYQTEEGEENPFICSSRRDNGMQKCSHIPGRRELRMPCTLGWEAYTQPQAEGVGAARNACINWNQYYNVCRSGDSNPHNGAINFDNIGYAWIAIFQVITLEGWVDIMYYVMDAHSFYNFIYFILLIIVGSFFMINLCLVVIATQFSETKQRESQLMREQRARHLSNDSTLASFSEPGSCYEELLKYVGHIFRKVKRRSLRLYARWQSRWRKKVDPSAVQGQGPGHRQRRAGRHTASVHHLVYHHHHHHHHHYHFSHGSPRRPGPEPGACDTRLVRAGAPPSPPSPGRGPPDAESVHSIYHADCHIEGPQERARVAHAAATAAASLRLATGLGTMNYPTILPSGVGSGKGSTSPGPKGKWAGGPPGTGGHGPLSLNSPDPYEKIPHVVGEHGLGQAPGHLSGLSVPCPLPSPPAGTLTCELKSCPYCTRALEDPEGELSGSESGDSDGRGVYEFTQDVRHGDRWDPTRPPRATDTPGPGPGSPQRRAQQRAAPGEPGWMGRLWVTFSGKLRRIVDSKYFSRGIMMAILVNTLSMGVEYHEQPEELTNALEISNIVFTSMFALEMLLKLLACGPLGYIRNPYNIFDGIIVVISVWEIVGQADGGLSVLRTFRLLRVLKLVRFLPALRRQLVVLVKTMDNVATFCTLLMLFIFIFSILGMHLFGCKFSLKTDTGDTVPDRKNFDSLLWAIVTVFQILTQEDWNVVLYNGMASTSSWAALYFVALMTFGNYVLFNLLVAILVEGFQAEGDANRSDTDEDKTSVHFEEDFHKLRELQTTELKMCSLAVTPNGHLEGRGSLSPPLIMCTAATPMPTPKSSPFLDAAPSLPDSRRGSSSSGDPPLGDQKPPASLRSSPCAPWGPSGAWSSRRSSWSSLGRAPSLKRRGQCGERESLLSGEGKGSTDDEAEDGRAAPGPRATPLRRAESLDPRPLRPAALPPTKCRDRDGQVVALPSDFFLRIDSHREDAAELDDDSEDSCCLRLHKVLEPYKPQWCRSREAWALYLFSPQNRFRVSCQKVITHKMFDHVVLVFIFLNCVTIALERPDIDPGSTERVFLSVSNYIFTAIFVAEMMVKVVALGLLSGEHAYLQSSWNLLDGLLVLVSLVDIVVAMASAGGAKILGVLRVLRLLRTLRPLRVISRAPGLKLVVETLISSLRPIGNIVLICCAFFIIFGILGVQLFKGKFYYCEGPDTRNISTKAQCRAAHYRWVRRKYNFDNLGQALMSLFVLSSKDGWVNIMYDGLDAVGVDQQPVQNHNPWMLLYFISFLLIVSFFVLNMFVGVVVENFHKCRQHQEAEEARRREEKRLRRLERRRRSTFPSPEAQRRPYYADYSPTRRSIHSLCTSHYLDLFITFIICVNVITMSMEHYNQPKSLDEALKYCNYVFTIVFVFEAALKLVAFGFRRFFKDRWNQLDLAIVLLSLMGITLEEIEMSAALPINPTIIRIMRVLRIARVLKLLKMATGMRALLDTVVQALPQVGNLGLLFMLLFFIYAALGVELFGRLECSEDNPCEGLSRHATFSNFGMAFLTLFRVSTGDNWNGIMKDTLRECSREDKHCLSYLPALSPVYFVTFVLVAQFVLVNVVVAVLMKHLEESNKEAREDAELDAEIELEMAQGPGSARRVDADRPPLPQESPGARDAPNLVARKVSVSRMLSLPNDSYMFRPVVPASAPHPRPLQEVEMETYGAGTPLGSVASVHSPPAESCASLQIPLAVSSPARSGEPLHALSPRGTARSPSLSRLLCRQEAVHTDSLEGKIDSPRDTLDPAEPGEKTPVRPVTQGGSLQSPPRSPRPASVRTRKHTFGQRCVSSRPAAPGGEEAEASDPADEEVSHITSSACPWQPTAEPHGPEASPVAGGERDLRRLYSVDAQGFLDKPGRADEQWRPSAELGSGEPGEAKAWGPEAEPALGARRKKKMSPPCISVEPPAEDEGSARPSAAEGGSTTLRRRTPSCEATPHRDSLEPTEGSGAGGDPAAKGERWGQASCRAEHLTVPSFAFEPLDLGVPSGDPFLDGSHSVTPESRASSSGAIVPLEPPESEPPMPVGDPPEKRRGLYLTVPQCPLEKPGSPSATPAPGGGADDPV
Briefly: Inhibitory effect for intracellular calcium response via Cav3.2 T-type Ca2+ channels (FLIPR Calcium 3 Assay Kit). The format is cell-based. (A change in cytosolic calcium serves as a functional read-out for many receptors and channels.)

[3] abbreviates: human Cav3.2-expressing KJMGER8 cells (Namalwa-derived), calcium response induced by 5 mmol/L CaCl2, 3 μmol/L mibefradil as reference, read-out: IC50 for the human Cav3.2 T-type Ca2+ current.

SMILES strings stand for the structures. Read-outs that look alike come from different tables or passages of the source. Where only a bound is given, the exact number is not on record here.

With `Cc1c(C(=O)NC2CCOCC2)cc2nc(C(F)(F)F)c(CC3CCC(F)(F)CC3)n2c1C#N` [Compound 181, 5-Cyano-3-[(4,4-difluorocyclohexyl)methyl]-6-methyl-N-(tetrahydro-2H-pyran-4-yl)-2-(trifluoromethyl)imidazo[1,2-a]pyridine-7-carboxamide], in test [1], the “inhibition of the increase of the scratching behavior in morphine-induced pruritus mice” value is “inhibited the increase of the scratching behavior”. Moreover, the concentration for half-maximal inhibition (IC50) (commonly the concentration that inhibits the measured activity by half) in test [2] (setting [3]) is at most 100 nM.
The matching figures for `CN(C)CC(C)(C)CNC(=O)c1cc(C#N)n2c(CC3CCC(F)(F)CC3)c(C(F)(F)F)nc2c1` [Compound 182, 5-Cyano-3-[(4,4-difluorocyclohexyl)methyl]-N-[3-(dimethylamino)-2,2-dimethylpropyl]-2-(trifluoromethyl)imidazo[1,2-a]pyridine-7-carboxamide]: “inhibited the increase of the scratching behavior” and at most 100 nM.
Take `CC(F)(F)c1nc2cc(C(=O)N[C@H]3C[C@@H]4CC[C@H]3O4)cc(C#N)n2c1CC1CCC(F)(F)CC1` [Compound 183, N-[(1R,2S,4S)-7-Oxabicyclo[2.2.1]heptan-2-yl]-5-cyano-3-[(4,4-difluorocyclohexyl)methyl]-2-(1,1-difluoroethyl)imidazo[1,2-a]pyridine-7-carboxamide]: the “inhibition of the increase of the scratching behavior in morphine-induced pruritus mice” value in test [1] is on record as “inhibited the increase of the scratching behavior”. The IC50 in test [2] is at most 100 nM.
The matching figures for `COC(C)(C)CNC(=O)c1cc2nc(C(C)(F)F)c(CC3CCC(F)(F)CC3)n2c(C#N)c1C` [Compound 184, 5-Cyano-3-[(4,4-difluorocyclohexyl)methyl]-2-(1,1-difluoroethyl)-N-(2-methoxy-2-methylpropyl)-6-methylimidazo[1,2-a]pyridine-7-carboxamide]: “inhibited the increase of the scratching behavior” and at most 100 nM.
The matching figures for `Cc1c(C(=O)NC2CCOCC2)cc2nc(C(C)(F)F)c(CC3CCC(F)(F)CC3)n2c1C#N` [Compound 185, 5-Cyano-3-[(4,4-difluorocyclohexyl)methyl]-2-(1,1-difluoroethyl)-6-methyl-N-(tetrahydro-2H-pyran-4-yl)imidazo[1,2-a]pyridine-7-carboxamide]: “inhibited the increase of the scratching behavior” and at most 100 nM.
On the same counts, the results for `[2H]C([2H])([2H])OC(C)(C)CNC(=O)c1cc(C#N)n2c(CC3CCC(F)(F)CC3)c(C(F)(F)F)nc2c1` [Compound 186, 5-Cyano-3-[(4,4-difluorocyclohexyl)methyl]-N-(2-methoxy-d3-2-methylpropyl)-2-(trifluoromethyl)imidazo[1,2-a]pyridine-7-carboxamide] are “inhibited the increase of the scratching behavior” and at most 100 nM.
With `CC(C)(CNC(=O)c1cc(C#N)n2c(CC3CCC(F)(F)CC3)c(C(F)(F)F)nc2c1)S(C)(=O)=O` [Compound 189, 5-Cyano-3-[(4,4-difluorocyclohexyl)methyl]-N-[2-methyl-2-(methylsulfonyl)propyl]-2-(trifluoromethyl)imidazo[1,2-a]pyridine-7-carboxamide], the “inhibition of the increase of the scratching behavior in morphine-induced pruritus mice” value in test [1] was “inhibited the increase of the scratching behavior”. Also, the IC50 in test [2] (setting [3]) was at most 100 nM.
Consider `[2H]C([2H])([2H])OC(C)(C)CNC(=O)c1cc2nc(C(C)(F)F)c(CC3CCC(F)(F)CC3)n2c(C#N)c1C` [Compound 190, 5-Cyano-3-[(4,4-difluorocyclohexyl)methyl]-2-(1,1-difluoroethyl)-N-(2-methoxy-d3-2-methylpropyl)-6-methylimidazo[1,2-a]pyridine-7-carboxamide], for which, in test [1], the “inhibition of the increase of the scratching behavior in morphine-induced pruritus mice” value was “inhibited the increase of the scratching behavior”. Further, the 50% inhibitory concentration (IC50) in test [2] is at most 100 nM.
The matching figures for `[2H]C([2H])([2H])OC(C)(C)CNC(=O)c1cc(C#N)n2c(CC3CCC(F)(F)CC3)c(C(C)(F)F)nc2c1` [Compound 194, 5-Cyano-3-[(4,4-difluorocyclohexyl)methyl]-2-(1,1-difluoroethyl)-N-(2-methoxy-d3-2-methylpropyl)imidazo[1,2-a]pyridine-7-carboxamide]: “inhibited the increase of the scratching behavior” and at most 100 nM.
On the same counts, the results for `CC(C)(CNC(=O)c1cc(Cl)n2c(CC3CCC(F)(F)CC3)c(C(F)(F)F)nc2c1)S(C)(=O)=O` [Compound 197, 5-Chloro-3-[(4,4-difluorocyclohexyl)methyl]-N-[2-methyl-2-(methylsulfonyl)propyl]-2-(trifluoromethyl)imidazo[1,2-a]pyridine-7-carboxamide] are “inhibited the increase of the scratching behavior” and at most 100 nM.
As for `Cc1cc(C(=O)NC2CCOCC2)cc2nc(C(F)(F)F)c(Cc3ccc(Cl)cc3)n12` [Compound 208, 3-(4-Chlorobenzyl)-5-methyl-N-(tetrahydro-2H-pyran-4-yl)-2-(trifluoromethyl)imidazo[1,2-a]pyridine-7-carboxamide], the “inhibition of the increase of the scratching behavior in morphine-induced pruritus mice” value in test [1] is listed as “inhibited the increase of the scratching behavior”. The IC50 in test [2] is at most 100 nM.
